Assay results from PMC5632533, “Mechanisms of action and in vivo antibacterial efficacy assessment of five novel hybrid peptides derived from Indolicidin and Ranalexin against Streptococcus pneumoniae” (PeerJ, 2017).

Legend:
[1] = system: Streptococcus pneumoniae; conditions: 30 pneumococcal clinical isolates; earlier study; ref Jindal et al., 2015; cited from earlier work
From the text: Table 1 Sequences and physicochemical properties of the template and hybrid AMPs. | column: MIC^a || One of the advantageous alternatives to today’s antibiotics is antimicrobial peptides (AMPs) ([Deslouches et al., 2013]; [Sánchez-Vásquez et al., 2013]). AMPs are synthesized by almost all living beings as the first line of defense in their immune system against microbial infection. Many aspects favor AMPs over traditional antibiotics: a broad range of antimicrobial activity against pathogenic micro-organisms (including viruses, parasites, bacteria, and fungi), microbial pathogens are less efficient in developing resistance against AMPs, as killing take place in a short contact time and AMPs c ...

[2] = system: S. pneumoniae; assay: Transmission electron microscopy (TEM) of treated cells; format: cell-based, Streptococcus pneumoniae; conditions: 10^8 CFU/ml in CAMHB; 8 × MIC (125 µg/ml; RN7-IN7 500 µg/ml); 1 h, 37 °C, 5% CO2
Protocol: Bacteria were prepared for TEM according to the guidelines of the Electron Microscopy Unit at the Faculty of Medicine, University of Malaya. S. pneumoniae cultures were grown overnight on Columbia agar with 5% sheep blood and suspended in cationally adjusted Mueller-Hinton broth (CAMHB) at 10^8 CFU/ml. […] Cells in cationally adjusted Mueller-Hinton broth (CAMHB) were used as an untreated control. After an hour of incubation, the pneumococcal cells were centrifuged to discard the medium, washed thrice with 10 mM phosphate buffer saline at pH 7.3 and fixed overnight in 4% (v/v) glutaraldehyde. All samples were washed twice with cacodylate buffer, incubated for 2 h in osmium tetroxide buffer (OsO4 1: 1 cacodylate), washed twice with cacodylate buffer and then incubated overnight in cacodylate buffer. All the samples were washed with distilled water twice and incubated for 10 min with uranyl acetate. After this, all samples were then washed twice with distilled water and dehydrated in an ascending series of ethanol: 35% (10 min), 50% (10 min), 70% (10 min), 95% (15 min), and thrice in 100% ethanol (15 min). After dehydration, samples were incubated with propylene oxide (15 min), propylene oxide 1:1 Epon (1 h), propylene oxide 1:3 Epon (2 h) and finally incubated overnight with Epon. All the samples were embedded in agar 100 resin at 37 °C for 5 hr and maintained at 60 °C until viewing. Reichert Ultramicrotome copper grids 3.05 mm (300 square mesh) (Agar Scientific, Essex, United Kingdom) were used to prepare Ultrathin sections. Ethanol-based uranyl acetate and lead citrate were used to stain the samples for 5 min. Transmission electron microscope (Leo Libra 120) was used to capture the images.

[3] = system: S. pneumoniae; assay: ATP efflux assay; format: cell-based, Streptococcus pneumoniae; conditions: peptides 125 µg/ml (RN7-IN7 500 µg/ml); for ATP released, Average 1hr / ATP released, Average 2hr / ATP released, Average 3hr: raw data sheet, mean of 3
Protocol: The amount of ATP released from pneumococcal cells incubated with hybrid peptides was measured as described previously, with a slight modification ([Tanida et al., 2006]). The ATP determination kit (Molecular Probes, Eugene, OR, USA) was used to measure the amount of ATP released based on the luciferin/luciferase method according to the manufacturer’s instructions. Briefly, S. pneumoniae were grown overnight on Columbia agar with 5% sheep blood. Bacterial suspensions were spectrophotometrically adjusted to (1 × 10^7 CFU/ml) and incubated with hybrid peptides RN7-IN10, RN7-IN9, RN7-IN8 and RN7-IN6 at 125 µg/ml and with RN7-IN7 at 500 µg/ml. The amount of ATP released form the pneumococcal cells were measured at three time points 1, 2 and 3 h. The samples were then centrifuged at 5,000 rpm for 5 min, and ATP efflux was subsequently estimated using an ATP standard curve. Values were obtained from three independent experiments. Ceftriaxone and erythromycin were used as positive controls.

[4] = system: S. pneumoniae genomic DNA; assay: Gel retardation assay (DNA retardation); format: binding, Streptococcus pneumoniae; conditions: 250 ng genomic DNA; 0.24–500 µg/ml tested; 10 min, room temperature; 1% agarose gel
Protocol: This assay was carried out as described previously, with minor modifications ([Li et al., 2013]). S. pneumoniae were grown overnight on Columbia agar with 5% sheep blood. A few bacterial colonies were transferred into a 1.5 ml eppendorf tube containing phosphate buffered saline (PBS). The bacterial cells were centrifuged, PBS was discarded and 50 µl of TE buffer containing 0.08 g/ml of lysozyme and 150 U/ml of mutanolysin was added to the cells. Genomic DNA was isolated from pneumococcal cells using DNeasy Blood & Tissue Kit (Qiagen, Hilden, Germany), following the manufacturer’s giudlines. The optical density ratio of 260 nm and 280 nm (OD260∕OD280 = 1.83) was used to measure the purity of the DNA. Genomic DNA (250 ng) was incubated with hybrid peptides at various concentrations (0.24–500 µg/ml) in 12 μl at room temperature for 10 min. 2 μl of loading buffer were added to the mixture and the migration of DNA through 1% agarose gel was evaluated by electrophoresis in 1 × Tris borate–EDTA buffer (45 mM Tris–borate and 1 mM EDTA at pH 8.0) and spotted by the fluorescence of gel stain (Gel Red, BIOTIUM, Fremont, CA, USA). The natural peptide indolicidin was used as positive controls, ceftriaxone and erythromycin were used as negative controls.

[5] = system: Resistant S. pneumoniae; conditions: incubation with resistant S. pneumoniae; ref Jindal et al., 2015; cited from earlier work
[6] = system: S. pneumoniae (highly virulent strain); assay: In vivo antipneumococcal activity, pneumococcal bacteremia (lethal systemic infection) model; design: species or system mice
Protocol: Two pneumococcal infection models developed previously in our lab ([Le et al., 2015]) were used to assess the therapeutic efficacy of peptides in vivo. The systemic infection model was used to mimic pneumococcal bacteremia in humans and the pneumococcal pneumonia model was used to mimic pneumococcal pneumonia in humans. A highly virulent strain was used in both the models. The bacterial isolate was grown overnight on Columbia agar with 5% sheep blood at 37 °C under 5% CO2. The bacterial suspension was adjusted to OD625 0.08-0.1 (1 ∼ 2 × 10^8 CFU/ml). Mice tested for lethal systemic infection were inoculated with 1.5 × 10^2 CFU/mouse (100 μl) via IP route. Mice used to assess the Pneumococcal pneumonia model were inoculated with pneumococcal cells of 5 × 10^3 CFU/mouse (50 μl) via the intrathoracic route.
After 1 hr of inoculation, Mice receiving treatment were randomized and divided into six groups. RN7-IN10 and RN7-IN8 were tested at three different doses for each (5 mg/kg, 10 mg/kg and 20 mg/kg) using a group of 10 mice. Graded doses of ceftriaxone (5 mg/kg, 10 mg/kg, […], 40 mg/kg and 80 mg/kg) were also tested to assess the in vivo antibacterial activity of this antibiotic. Only mice injected with PBS were served as uninfected control. Mice injected with bacterial inoculum were used as untreated control group and given sterile distilled water only. Survival of mice was documented for seven days or until death. After seven days, the experiment was ended, the blood and homogenates of the five major organs (kidney, brain, spleen, liver and lung) of the surviving mice were plated on Columbia agar with 5% sheep blood, to detect the presence of pneumococcal cells. […]

[7] = 1 × 10^7 CFU/ml, luciferin/luciferase, ATP standard curve, mean ± SD, three independent experiments

| Compound | MIC, minimum inhibitory concentration [1] | ATP released from pneumococcal cells after 1 h [3, 7] | concentration inhibiting migration of genomic DNA through the agarose gel [4] | ATP released, Average 1hr [3] | ATP released, Average 2hr [3] | ATP released, Average 3hr [3] | further results |
| --- | --- | --- | --- | --- | --- | --- | --- |
| FLGGLIKPWWPWRR-NH2 [RN7-IN7, hybrid peptide of ranalexin (residues 1-7) and indolicidin (residues 7-13)] | 62.5 µg/mL | 22.35 ± 0.9 pM |  |  |  |  | TEM: detachment of cell wall from cell membrane [2]: partial disconnection of the cell wall from the cell membrane; ATP released from pneumococcal cells after 3 h [3, 7]: 13.02 ± 2.26 pM |
| CO/N=C(\C(=O)N[C@@H]1C(=O)N2C(C(=O)O)=C(CSc3nc(=O)c(=O)[nH]n3C)CS[C@H]12)c1csc(N)n1 [ceftriaxone, reference compound] |  | 5.24 ± 1.43 pM | > 500 µg/mL | 5.248 pM | 3.522 pM | 3.119 pM | time to bactericidal activity / elimination of S. pneumoniae [5]: > 240 min; survival of infected mice up to seven days post-infection ([6]; 1.5 × 10^2 CFU/mouse IP, treatment IP 5 mg/kg (peptides at 1 h, 12 h, 24 h post-infection), 10 mice): 10%; survival of infected mice up to seven days post-infection ([6]; 1.5 × 10^2 CFU/mouse IP, treatment IP 10 mg/kg (peptides at 1 h, 12 h, 24 h post-infection), 10 mice): 30%; survival of infected mice up to seven days post-infection ([6]; 1.5 × 10^2 CFU/mouse IP, treatment IP 20 mg/kg (peptides at 1 h, 12 h, 24 h post-infection), 10 mice): 40%; survival of infected mice up to seven days post-infection ([6]; treatment IP 40 mg/kg): 70%; survival of infected mice up to seven days post-infection ([6]; treatment IP 80 mg/kg): 90% |
| ILPWKWPWWPWRR-NH2 [Indolicidin, natural template (parent) antimicrobial peptide] | 15.62 to 31.25 µg/mL |  | 62.5 µg/mL |  |  |  |  |
| FLGGLIKIVPAMICAVTKKC-OH [Ranalexin, natural template antimicrobial peptide] | 62.5 µg/mL |  |  |  |  |  |  |
| CC[C@H]1OC(=O)[C@H](C)[C@@H](O[C@H]2C[C@@](C)(OC)[C@@H](O)[C@H](C)O2)[C@H](C)[C@@H](O[C@@H]2O[C@H](C)C[C@H](N(C)C)[C@H]2O)[C@](C)(O)C[C@@H](C)C(=O)[C@H](C)[C@@H](O)[C@]1(C)O [erythromycin, reference compound] |  | 0.49 ± 0.004 pM | > 500 µg/mL | 0.4933 pM | 0.4736 pM | 0.3124 pM |  |
